Data taken from patent US4895869A, “Phenylene, furyl, and thienyl leukotriene B4 analogues” (C. D. Searle & Co., priority 1988, dated 1990).

Legend:
LTB4 receptor = target: T1, LTB4 receptor (Homo sapiens, UniProt Q15722); experiment: LTB4 Receptor Binding Assay (inhibition of specific binding of (3H) LTB4 to human neutrophils); details: 0.6 nM (3H) LTB4, 0° C., 45 minutes; for IC50: pH 7.4
T1 construct: neutrophils were purified from venous blood of normal human donors; endogenous in cells; host or cells: neutrophils purified from venous blood of normal human donors (purity at least 95%)
Description: (§1) For use in both the "LTB4 receptor Binding Assay" and the "human Neutrophil Degranulation Assay", neutrophils were purified from venous blood of normal human donors using standard techniques of dextran sedimentation, centrifugation on Histopaque® (density solution) and hypotonic lysis of erythrocytes (Boyum, A., Isolation of Leukocytes From Human Blood: Further Observations. Scand. J. Lab. Clin. Inves. 21 (Suppl. 97): 31, 1968). The purity of isolated neutrophils was ≥95%.
Neutrophils (4-6×10^6) in 1 ml of Hanks balanced salt solution containing 10 mM Hepes Buffer (HBSS), pH 7.4 and 30 μM nordihydroguaiaretic acid were incubated with 0.6 nM (^3 H) LTB4 in the presence or absence of test compounds. The incubation was carried out at 0° C. for 45 minutes and terminated by adding 5 ml of ice cold HBSS followed by rapid filtration of incubation mixture under vacuum through GF/C glass fiber filters. The filters were further washed with 10 ml HBSS and their radioactivity was determined. Specific binding was defined as the difference between total binding and nonspecific binding which was not displaced by 10-^7 M unlabeled LTB4.
The inhibition of specific binding was determined for representatives compounds of this invention, and the corresponding IC50 values calculated (Table 1). An IC50 is the concentration of the compound of interest which will inhibit the binding of LTB4 by 50% of the LTB4 receptors. For example, for the compound of Example 7, the IC50 was determined to be approximately

[1] = test system: LTB4 induced degranulation of human neutrophils; experiment: Human Neutrophil Degranulation Assay (LTB4 induced myeloperoxidase release); format: cell-based; details: cytochalasin B, LTB4 5×10^-8 M, read-out: Inhibition of LTB4 Induced Neutrophil Degranulation IC50
Description: as §1
LTB4 induced neutrophil degranulation was determined by measuring the release of myeloperoxidase activity into the incubation medium. Neutrophils (3×10^6) in 1 ml HBSS solution were preincubated with cytochalasin B(5 μg) at 37° C. for 5 minutes, followed by preincubation with test compounds for 7 minutes. Neutrophilsere then incubated for 2 to 20 minutes with either LTB4 (5 ×10^-8 M) or the chemotactic peptide f-met-leu-phe (5×10^-6 M) to induce degranulation. Following incubation, samples were centrifuged and myleoperoxidase was extracted from the cell pellets by sonication in phosphate buffer containing 0.4% Triton X-100. Triton X-100 was also added to the supernatents to a concentration of 0.4%. The supernatants and the pellet extracts were then assayed spectrophotometrically for myeloperoxide activity by determining the rate of decomposition of H2 O2 with o-dianisidine as hydrogen donor as described by Renlund D. G., MacFarlane J. L., Christensen, R. D., Lynch R. E., and Rothstein, G., A Quantitative And Sensitive Method For Measurement Of Mveloperoxidase, Clinical Research 28:75A, 1980). Myeloperoxidase activity released into the supernatant was expressed as the percent of the average total activity (pellet plus supernatant).
The inhibition of LTB4 induced neutrophil degranulation was determined for representative compounds of this invention and their corresponding IC50 values were calculated (Table 1). The concentration of a compound which inhibited LTB4 induced neutrophil degranulation by 50% was determined to be its IC50 value.

T1 sequence (Q15722 whole entry): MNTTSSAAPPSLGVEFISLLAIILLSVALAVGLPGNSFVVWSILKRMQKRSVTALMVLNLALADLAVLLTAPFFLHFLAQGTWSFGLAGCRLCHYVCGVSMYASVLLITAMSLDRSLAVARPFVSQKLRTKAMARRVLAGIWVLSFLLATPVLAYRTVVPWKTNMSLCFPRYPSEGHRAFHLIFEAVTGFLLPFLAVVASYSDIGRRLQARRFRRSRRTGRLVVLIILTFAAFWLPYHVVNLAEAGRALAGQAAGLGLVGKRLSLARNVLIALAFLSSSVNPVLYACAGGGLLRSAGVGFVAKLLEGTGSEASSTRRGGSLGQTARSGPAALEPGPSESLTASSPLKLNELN

Row | Substance | IC50 (LTB4 receptor) [nM] | IC50 [1] [nM] | Inhibition of Receptor Binding of LTB4, % inhibition (LTB4 receptor; at 10 μM) [%]
1 | Methyl 7-[4-(hydroxynonyl)phenyl]-5-hydroxy-6heptynoate [Example 11] | 1000 | 650 | 
2 | 7-[2-[5-(1-hydroxynonyl)thienyl]-5-hydroxy-6Z-heptynoic acid, lithium salt [Example 22] | 5000 | 1800 | 
3 | 7-[2-[5-(1-hydroxynonyl)thienyl]-5-hydroxy-6Z-heptenoic acid, lithium salt [Example 23] |  | 8700 | 20
